Like-named read-outs stand apart in the source and are kept apart here. *1 amine or outer side, *2 acyl side, *3 side chain or, on linkers, in order; H or OH if unused. Where a SMILES comes first, the peptide text is derived from it. [ ]: non-standard residue; d: D form. X1 = N6‑isopropyl‑N6‑((1-methyl-1H-imidazol-5-yl)methyl)Lys, CC(C)N(CCCC[C@H](N[*:1])C(=O)[*:2])Cc1cncn1C; X2 = CC(C)N(CCCC[C@H](N[*:1])C(=O)[*:2])Cc1cncn1C; Phe(F5) = N[C@@H](Cc1c(F)c(F)c(F)c(F)c1F)C(=O)O; NMeA = CN[C@@H](C)C(=O)O; Inp = O=C(O)C1CCNCC1

The target in experiment [1] is T1, CDYL chromodomain (Homo sapiens, UniProt Q9Y232).
T1 construct: chromodomain residues 1-78 of NP_004815, N-terminal GST tag (pGEX4T) removed by thrombin for ITC, E. coli Rosetta2 BL21(DE3)pLysS
T1 sequence (Q9Y232 1-78 isoform Q9Y232-2): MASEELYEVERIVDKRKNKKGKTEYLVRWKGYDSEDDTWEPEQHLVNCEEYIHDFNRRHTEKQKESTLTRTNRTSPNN
Put plainly: isothermal titration calorimetry. The class given is binding.

Experiment [2] deals with T2, chromodomain of MPP8 (residues 55-116 of NP_059990) (UniProt Q99549-1 55-116).
T2 construct: M-phase phosphoprotein 8 (MPP8), chromodomain, residues 55-116 of NP_059990; source: E. coli Rosetta2 BL21(DE3)pLysS, purified (HisTrap FF, Superdex 75)
T2 sequence (looked up): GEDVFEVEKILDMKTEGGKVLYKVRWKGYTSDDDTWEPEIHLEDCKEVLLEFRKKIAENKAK
Kind of experiment: not stated; selectivity of UNC6261 among chromodomains (Figure S7); method not given. The settings on record: both partners purified.

Experiment [3] has as its target T3, chromodomain of CDYL2 (residues 1-75 of NP_689555) (UniProt Q8N8U2 1-75).
T3 construct: chromodomain Y-like protein 2 (CDYL2), chromodomain, residues 1-75 of NP_689555; source: E. coli Rosetta2 BL21(DE3)pLysS, purified (HisTrap FF, Superdex 75)
T3 sequence (looked up): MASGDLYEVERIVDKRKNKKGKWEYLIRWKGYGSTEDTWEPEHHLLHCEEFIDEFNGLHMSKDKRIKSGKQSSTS
Put plainly: AlphaScreen or HTRF; TR-FRET competition assay for CDYL2, dose-response; 20 mM tris pH 7.5, 150 mM NaCl, 0.05% Tween 20, 2 mM DTT; 1 h equilibration; tracer not named (ref. 30). The note with it: both partners purified. Background: Alpha assays give light when donor and acceptor beads are brought close together.

In the case of `COC(=O)[C@H](CO)NC(=O)[C@H](CCCCN(Cc1cncn1C)C(C)C)NC(=O)[C@H](Cc1ccccc1)NC(=O)[C@H](C)NC(=O)[C@H](Cc1c(F)c(F)c(F)c(F)c1F)NC(=O)C1CCNCC1` [UNC6261, Methyl N ^6‐isopropyl‐N ^6‐((1‐methyl‐1H‐imidazol‐5‐yl)methyl)‐N ^2‐((S)‐3‐(perfluorophenyl)‐2‐(piperidine‐4‐carboxamido)propanoyl)‐L‐alanyl‐L‐phenylalanyl‐L‐lysyl‐L‐serinate] (H-[Inp][Phe(F5)]AF[X2]S-OMe), the Kd in experiment [1] (read-out: Kd) stood at 139 ± 3.3 nM.

As for `COC(=O)[C@H](CO)NC(=O)[C@H](CCCCN(Cc1cncn1C)C(C)C)NC(=O)[C@H](Cc1ccccc1)NC(=O)[C@H](C)N(C)C(=O)[C@H](Cc1c(F)c(F)c(F)c(F)c1F)NC(=O)C1CCNCC1` [UNC7394, Methyl N ^6‐isopropyl‐N ^6‐((1‐methyl‐1H‐imidazol‐5‐yl)methyl)‐N ^2‐N‐methyl‐N‐((S)‐3‐(perfluorophenyl)‐2‐(piperidine‐4‐carboxamido)propanoyl)‐L‐alanyl‐L‐phenylalanyl‐L‐lysyl‐L‐serinate] (H-[Inp][Phe(F5)][NMeA]F[X2]S-OMe), the Kd in experiment [1] (read-out: no measurable binding) is greater than 50000 nM.

B1: UNC6261 (peptide)
peptide: {piperidine‑4‑carbonyl}-[Phe(F5)]AF[X1]S-OMe
notes: peptidomimetic pentapeptide; F1 stands for pentafluorophenylalanine, K4 for the dialkylated lysine mimetic; also called CDYL antagonist; source: synthetic, purified by reverse phase flash chromatography (TFA salt)
As a reminder, the IC50 is the midpoint of a concentration-inhibition curve. High values mean weaker potency, low ones greater potency. Take B1: the “fold selectivity for CDYL over MPP8” value in experiment [2] is 13 fold. The same molecule displayed an IC50 in experiment [3] of 81 ± 16 nM.

(Values after article PMC8981457, “Cdyl Deficiency Brakes Neuronal Excitability and Nociception through Promoting Kcnb1 Transcription in Peripheral Sensory Neurons” (Advanced Science, 2022).)
